Source: patent publication US8912125B2, “Control of trifluralin-resistant weeds with dithiopyr” (Dow AgroSciences, LLC., priority 2010, dated 2014)

What was measured:
[1] = test system: ryegrass biotype 1252.2 (with trifluralin resistance); assay: Pre-emergence (simulated IBS) pot test, % survival of ryegrass biotype 1252.2; format: in vivo; conditions: 5 weeks after herbicide application
Method: (§1) Five ryegrass biotypes with varying degrees of resistance to trifluralin (1251, 1216.1, 1252.6, 1252.2 and 1145.4) and two non-resistant biotypes (SLR4 and 1261.1) were tested. Dithiopyr was applied using a simulated incorporated by sowing (IBS) system for ryegrass and wheat.
(§2) Ryegrass: A set volume of seeds (50 seeds approx) were placed onto the surface of sandy potting soil in 0.55 L polyethylene pots. Dithiopyr was sprayed directly onto the ryegrass seed soil surface at rates of 250, 500 and 1000 grams active ingredient per hectare (g ai/ha). The seed and soil were then covered with a soil mixture to a depth of 5 mm (the soil mixture included 385 L peatmoss, 615 L coarse sand, 1024 g Ag. lime, 564 g hydrated lime, and 3.7 Kg Osmocote® Exact™ (Everris International B.V.; Geldermalsen, The Netherlands) with a pH of 6.3).
(§3) Herbicide application was performed using a laboratory boom sprayer equipped with T-jet fan nozzles at a speed of 1 ms^−1. Output from the sprayer was calibrated at 110 L ha^−1 at a pressure of 250 kPa. Using this testing procedure, volatilization losses were minimized by the immediate and even incorporation of each herbicide. The experiment was established as a randomized block design with three replications and was conducted outdoors during mid winter (July-August).
(§4) Herbicide effects on wheat and ryegrass seedlings were measured 5 weeks after spraying. Seedlings were considered emerged if they had reached the 2-leaf stage at this time. Survival % was recorded by comparing the surviving number of 2-3 leaved seedlings in the sprayed treatments to the […] (Tables 1 and 2).

[2] = test system: ryegrass biotype 1145.4 (with trifluralin resistance); assay: Pre-emergence (simulated IBS) pot test, % survival of ryegrass biotype 1145.4; format: in vivo; conditions: 5 weeks after herbicide application
Method: as §1, §2, §3, §4

[3] = test system: ryegrass biotype 1261.1 (without trifluralin resistance); assay: Pre-emergence (simulated IBS) pot test, % survival of ryegrass biotype 1261.1; format: in vivo; conditions: 5 weeks after herbicide application
Method: as §1, §2, §3, §4

[4] = test system: ryegrass biotype 1252.6 (with trifluralin resistance); assay: Pre-emergence (simulated IBS) pot test, % survival of ryegrass biotype 1252.6; format: in vivo; conditions: 5 weeks after herbicide application
Method: as §1, §2, §3, §4

[5] = test system: ryegrass biotype SLR4 (without trifluralin resistance); assay: Pre-emergence (simulated IBS) pot test, % survival of ryegrass biotype SLR4; format: in vivo; conditions: 5 weeks after herbicide application
Method: as §1, §2, §3, §4

[6] = test system: ryegrass biotype 1251 (with trifluralin resistance); assay: Pre-emergence (simulated IBS) pot test, % survival of ryegrass biotype 1251; format: in vivo; conditions: 5 weeks after herbicide application
Method: as §1, §2, §3, §4

[7] = test system: ryegrass biotype 1216.1 (with trifluralin resistance); assay: Pre-emergence (simulated IBS) pot test, % survival of ryegrass biotype 1216.1; format: in vivo; conditions: 5 weeks after herbicide application
Method: as §1, §2, §3, §4

Correll wheat = assay: Crop safety on wheat, pre-emergence (simulated IBS) pot test, % dry weight and % survival; format: in vivo, wheat (var. Correll); conditions: 5 weeks after application
Method: as §1
Wheat: Ten wheat seeds (var. Correll) were buried 1 cm deep. The herbicides were sprayed onto the soil surface and then the herbicide covered with another 5 mm of soil. This system of seed separation ensured crop selectivity
as §3, §4
In addition, wheat biomass was recorded by harvesting the plants and measuring dry weight to indicate crop safety. The dry weights from the treated plants were compared to the weight of untreated wheat and the percentage biomass calculated (Table 2).

| SMILES | % survival of ryegrass, Mean ([1]; 250 g ai/ha) [%] | % survival of ryegrass, Mean ([1]; 500 g ai/ha) [%] | % survival of ryegrass, Mean ([1]; 1000 g ai/ha) [%] | % survival of ryegrass, Mean ([2]; 250 g ai/ha) [%] | % survival of ryegrass, Mean ([2]; 500 g ai/ha) [%] | % survival of ryegrass, Mean ([2]; 1000 g ai/ha) [%] | % survival of ryegrass, Mean ([3]; 250 g ai/ha) [%] | % survival of ryegrass, Mean ([3]; 500 g ai/ha) [%] | % survival of ryegrass, Mean ([3]; 1000 g ai/ha) [%] | % survival of ryegrass, Mean ([4]; 250 g ai/ha) [%] | % survival of ryegrass, Mean ([4]; 500 g ai/ha) [%] | % survival of ryegrass, Mean ([4]; 1000 g ai/ha) [%] | % survival of ryegrass, Mean ([5]; 250 g ai/ha) [%] | % survival of ryegrass, Mean ([5]; 500 g ai/ha) [%] | % survival of ryegrass, Mean ([5]; 1000 g ai/ha) [%] | % survival of ryegrass, Mean ([6]; 250 g ai/ha) [%] | % survival of ryegrass, Mean ([6]; 500 g ai/ha) [%] | % survival of ryegrass, Mean ([6]; 1000 g ai/ha) [%] | % survival of ryegrass, Mean ([7]; 250 g ai/ha) [%] | % survival of ryegrass, Mean ([7]; 500 g ai/ha) [%] | also measured |
| --- | --- | --- | --- | --- | --- | --- | --- | --- | --- | --- | --- | --- | --- | --- | --- | --- | --- | --- | --- | --- | --- |
| CSC(=O)c1c(C(F)F)nc(C(F)(F)F)c(C(=O)SC)c1CC(C)C [Dithiopyr, S,S′-dimethyl 2-(difluoromethyl)-4-(2-methylpropyl)-6-(trifluoromethyl)-3,5-pyridinedicarbothioate] | 0 | 0 | 0 | 0 | 0 | 0 | 0 | 0 | 0 | 0 | 0 | 0 | 0 | 0 | 0 | 0 | 0 | 0 | 0 | 0 | % survival of ryegrass, Mean ([7]; 1000 g ai/ha): 0%; Survival (%) Mean (Correll wheat; 250 g ai/ha): 82.2%; Survival (%) Mean (Correll wheat; 500 g ai/ha): 60.0%; Survival (%) Mean (Correll wheat; 1000 g ai/ha): 28.9% |
| CCCN(CCC)c1c([N+](=O)[O-])cc(C(F)(F)F)cc1[N+](=O)[O-] [Trifluralin, 2,6-dinitro-N,N-dipropyl-4-(trifluoromethyl)benzenamine] | 29.1 | 13.9 | 3.8 | 100 | 100 | 14.1 | 5.6 | 0 | 1.1 | 33.8 | 13.1 | 26.3 | 2.9 | 0 | 0 | 97.7 | 68.2 | 27.3 | 40.4 | 19.1 | % survival of ryegrass, Mean ([7]; 1000 g ai/ha): 9% |
